Tested on: mushroom tyrosinase
Assay: Tyrosinase inhibition screening (L-DOPA oxidation, absorbance at 470 nm)
Format: biochemical
Details: Concentration 0.1%; single compounds
Excerpt: The tyrosinase inhibition may be used to determine the tyrosinase inhibition ability of the compounds. The test comprises adding the test compound to a solution of L-dihydroxyphenylalanine (L-(DOPA)) and mushroom tyrosinase. L-(DOPA) is converted to […] by the mushroom tyrosinase, causing a brown colour to form. Inhibition of this reaction prevents the brown colour formation. The lighter the colour at the end of the reaction, the stronger is the inhibitory effect of the active. Absorbance data may be collected using a plate reacted set up to have a kinetic read every 1 minute for 30 minutes, where absorbance is read at 470 nm.

Compound	Tyrosinase Inhibition (%)
O=C(O)C(O)c1ccccc1 (stereo not shown) [C, Mandelic acid]	80.279
C=C(C)[C@@H]1CCC(C)=C[C@H]1c1c(O)cc(CCCCC)cc1O [F, Cannabidiol isolate (CBD)]	9.134
CCCCCCCCCCCCCCC[C@@H](O)[C@@H](N)CO [G, Sphinganine]	-5.78
Feruloyl oligopeptide-33	41.765

Source: patent EP4516281A1, “COSMETIC COMPOSITIONS” (The Boots Company plc, priority 2023, dated 2025)
